Laboratory results reported in patent publication US5284947A, “Multiple drug resistance-attenuating compounds” (Abbott Laboratories, priority 1992, dated 1994).
In brackets after ≈: the same amount, converted by molar mass. Read-outs that look alike come from different tables or passages of the source.

Assays:
[1] = tested on: certain mammalian target cells; settings: known compounds; cited from earlier work
[2] = tested on: KB V1 cells (multiple drug resistant); assay: Chemosensitization (cytotoxicity) assay of multiple drug resistant cells, MTT; type: cell-based; settings: Homo sapiens, KB-V1, 72 h
Method: (§1) Cytotoxicity assays to determine 50% inhibition of growth (IC50) were done in 96-well tissue culture microtiter trays (Costar, Cambridge, Mass.). Cell growth was determined as follows: KB 3-1 (sensitive) and KB V1 (multiple drug resistant) cells grown in Dulbecco's modified Eagle medium (Gibco BRL, Division of Life Technologies, Inc., Grand Island, N.Y.) were added to each microtiter well at 1×10^4 cells in 200 μL of growth medium in the presence and absence of verapamil, 5-acetylardeemin and 5-acetyl-15b-β-hydroxyardeemin at […]. Anticancer cytotoxic agents adriamycin (ADR), vinblastine (VBL) and vincristine (VCR) (Sigma, St. Louis, Mo.) were added in final concentrations ranging from 0.0001 to 10 μg/mL. Cells were incubated at 37° C. in a humidified atmosphere of 4% CO2 for 72 hours. Cell growth was measured by the reduction of 3-(4,5-dimethyl-thiazol-2-yl)-2,5-diphenyltetrazolium bromide (MTT), added to each well at 0.1 mg/mL. The plates were incubated at 37° C. in humidified 4% CO2 for 3 hours. The trays were spun at 1000×g for 10 minutes, the supernatant removed by aspiration and the residual formazan reduction product dissolved in 100 μL of DMSO. Growth was quantitated by measuring the optical absorbance in each well at 570 nm in a microtiter plate reader.

KB 3-1 cells (sensitive) = assay: Cytotoxicity assay in drug-sensitive cells, MTT; type: cell-based; settings: Homo sapiens, modulator: none, 72 hours
Method: as §1

## CCC1=C[C@@H]2CN3CCc4c([nH]c5ccccc45)[C@@](C(=O)OC)(C2)[C@@H]13 [catharanthine]
[1]
  attenuation of drug resistance: attenuate, if not reverse, drug resistance in certain mammalian target cells

## CC[C@]1(O)C[C@@H]2CN(CCc3c([nH]c4ccccc34)[C@@](C(=O)OC)(c3cc4c(cc3OC)N(C)[C@H]3[C@@](O)(C(=O)OC)[C@H](OC(C)=O)[C@]5(CC)C=CCN6CC[C@]43[C@@H]65)C2)C1 [VBL, vinblastine]
[2]; read-out: VBL-IC50
  IC50: 1.2 µg/mL
KB 3-1 cells (sensitive); read-out: VBL-IC50
  IC50: 0.001 µg/mL (≈ 1.23 nM)

## CC[C@]1(O)C[C@H]2CN(CCc3c([nH]c4ccccc34)[C@@](C(=O)OC)(c3cc4c(cc3OC)N(C=O)[C@H]3[C@@](O)(C(=O)OC)[C@H](OC(C)=O)[C@]5(CC)C=CCN6CC[C@]43[C@@H]65)C2)C1 [VCR, vincristine]
[2]; read-out: VCR-IC50
  IC50: 7 µg/mL
KB 3-1 cells (sensitive); read-out: VCR-IC50
  IC50: 0.001 µg/mL (≈ 1.21 nM)

## COc1ccc([C@@H]2Sc3ccccc3N(CCN(C)C)C(=O)[C@@H]2OC(C)=O)cc1 [diltiazem]
[1]
  attenuation of drug resistance: attenuate, if not reverse, drug resistance in certain mammalian target cells

## COc1ccc(CCN(C)CCCC(C#N)(c2ccc(OC)c(OC)c2)C(C)C)cc1OC (stereo not drawn) [Verapamil, verapamil]
[1]
  attenuation of drug resistance: attenuate, if not reverse, drug resistance in certain mammalian target cells

## COc1cccc2c1C(=O)c1c(O)c3c(c(O)c1C2=O)C[C@@](O)(C(=O)CO)C[C@@H]3O[C@H]1C[C@H](N)[C@H](O)[C@H](C)O1 [ADR, adriamycin]
[2]; read-out: ADR-IC50
  IC50: 3 µg/mL
KB 3-1 cells (sensitive); read-out: ADR-IC50
  IC50: 0.012 µg/mL (≈ 22.1 nM)
